This is an account of results in patent US20240425475A1, “COMPOUND BASED ON QUINAZOLINE-SUBSTITUTED GLUTARIMIDE SKELETON AND USE THEREOF” (GLUETACS THERAPEUTICS (SHANGHAI) CO., LTD., priority 2022, published 2024).

For assay [1], the system named is Human diffuse large B-cell lymphoma cell line: TMD8. Put plainly: Half inhibitory concentration (IC50) against tumor cells, CCK-8 cell viability. Format: cell-based. Conditions: 96 h treatment. The protocol:
(§1) The tumor cells used herein were cultured in a cell culture medium listed in table 2 at 37° C. in an incubator with 5% CO2. Prior to experimentation, all cells used were correctly identified by STR profiling, and tested negative for mycoplasma through routine screenings. [table] Determination of Half Inhibitory Concentration (IC50) of the Compounds Against Tumor Cells: IC50 values of the compounds of the present disclosure (including the compounds in Table 1, and compounds of examples 1-104) were measured using the Meilun Cell Counting Kit-8 kit from Dalian Meilun Biotech Co., Ltd. Assay details are as follows: tumor cells were seeded in a 96-well plate at a density listed in Table 3. After 24 h, 100 μL of the inoculated cells were treated with 0.5 μl of the compounds of the present disclosure (including the compounds in Table 1, and compounds of examples 1-104) at 10 different successively decreasing concentrations (starting at the highest concentration of […]; 5-fold serial dilutions). After the cells were treated with the compounds of the present disclosure for a period of time, cell viability was measured according to the instructions provided with the CCK-8 kit. DMSO served as the negative control, and corresponding commercial immunomodulatory drug Avadomide (CC-122) was used as the positive control, both of which treated the cells using the same protocol as that of the compounds of the present disclosure. The growth inhibition of the compounds of the present disclosure on cells was plotted by Prism Graphpad software, and the IC50 values of the compounds of the present disclosure were calculated therefrom. [table] We tested the activities of the compounds of the present invention (including the compounds in Table 1 and Examples 1-104 compounds) in tumor cells through a dose-dependent manner. The cells were treated with the compounds of the present invention at 10 different successively decreasing concentrations (starting at the highest concentration of 10 μM; 5-fold serial dilutions) for 72 h or 96 h, and then the cell viability determination was performed in accordance with CCK-8 reagent operating instructions.

For assay [2], the system named is Human multiple myeloma cells: MM.1S. The assay is described as above. Format: cell-based. To be noted: MM1.S, MM.1S cells, 72 h treatment. The protocol: as §1
Assay [3] concerns the target human Cereblon WT GST-tagged protein (Homo sapiens (Human), UniProt Q96SW2). Put plainly: CRBN-binding affinity, CEREBLON BINDING kit (HTRF). Conditions: HTRF inhibitory activity, binding to CRBN. The text has this:
Determination of CRBN-Binding Affinity of Compounds
The CEREBLON BINDING kits (specification: 10,000 tests; product number: Catalog #64BDCRBNPEH; CISBIO company) was used to determine the CRBN binding ability of the compounds to be tested through a HTRF method (homogeneous time-resolved fluorescence). The specific methods are as follows: • 1. According to the instructions of the CEREBLON BINDING kits, the compounds to be tested of the present invention and lenalidomide were serially diluted using diluent #9 (1×) solution to obtain a final concentration of 2 μM for both the tested compounds and lenalidomide solution. • 2.2.5 μL of the above 2 μM of the tested compounds and lenalidomide solution, as well as the same volume of diluent #9 (1×) solution (solvent control group, Std0) were taken and added to each well of a 96-well plate, respectively. Then, 2.5 μL of (human Cereblon WT GST-tagged protein) solution was added to each well. Finally, 5 μL of the uniformly mixed thalidomide-Red reagent and GST Eu antibody working solution were added to each of the above wells. The final concentration of the tested compounds and lenalidomide in each well is 0.5 μM. • 3. The blank control wells were sequentially added with 2.5 μL of diluent #9 (1×) solution, 2.5 μL of PROTAC binding buffer, and 5 μL of uniformly mixed thalidomide-Red reagent and GST Eu antibody working solution. • 4. After sealing and incubating the solutions in the above wells at room temperature for 3 hours, the absorbance values at emission wavelengths of 620 nm and 665 nm were detected by the HTRF method using a Spark microplate reader (V3.1 SP1).
The corresponding CRBN binding inhibition rate was calculated using the following method: […]
Note: OD 665 nmcompound is the absorbance value of each well of the compounds to be tested of the present disclosure at an emission wavelength of 665 nm.
OD 620 nmcompound is the absorbance value of each well of the compounds to be tested of the present disclosure at an emission wavelength of 620 nm.
OD 665 nmcontrol is the absorbance value of the blank control well at an emission wavelength of 665 nm.
OD 620 nmcontrol is the absorbance value of the blank control well at an emission wavelength of 620 nm.
OD 665 nmstd0 is the absorbance value of the solvent control well at an emission wavelength of 665 nm.
OD 620 nmstd0 is the absorbance value of the solvent control well at an emission wavelength of 620 nm.
(In general: In TR-FRET formats the signal depends on donor and acceptor labels being close together.)

In assay [4] the test system is Human dexamethasone-resistant multiple myeloma cell line: MM.1R. Put plainly: Half inhibitory concentration (IC50) against tumor cells, CCK-8 cell viability. Format: cell-based. Conditions: MM.1R cells, 72 h treatment. The protocol: as §1
Assay [5] relates to Human colon cancer cell: SW620. The assay is described as above. The assay is classed as cell-based. Conditions: SW-620, 96 h treatment. The protocol:
as §1

Sequence of human Cereblon WT GST-tagged protein (Q96SW2 whole entry): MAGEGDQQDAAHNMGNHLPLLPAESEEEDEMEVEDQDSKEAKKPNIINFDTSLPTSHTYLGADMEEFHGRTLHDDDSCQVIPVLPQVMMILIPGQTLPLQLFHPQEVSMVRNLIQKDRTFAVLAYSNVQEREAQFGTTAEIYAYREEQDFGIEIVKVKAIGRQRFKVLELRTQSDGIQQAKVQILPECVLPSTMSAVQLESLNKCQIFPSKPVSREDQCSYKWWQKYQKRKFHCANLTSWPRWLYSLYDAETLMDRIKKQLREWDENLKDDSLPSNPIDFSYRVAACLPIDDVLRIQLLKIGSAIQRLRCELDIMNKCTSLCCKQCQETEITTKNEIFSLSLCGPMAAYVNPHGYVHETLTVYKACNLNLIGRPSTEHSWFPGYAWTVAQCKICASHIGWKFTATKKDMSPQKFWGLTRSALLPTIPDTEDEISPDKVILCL

In turn, `Cc1nc2cccc(NCCCCNC34CC5CC(CC(C5)C3)C4)c2c(=O)n1C1CCC(=O)NC1=O` (centres unmarked) [GT-01818, 3-(5-((4-(((3s,5s,7s)-adamantan-1-yl)amino)butyl)amino)-2-methyl-4-oxoquinazolin-3(4H)-yl)piperidine-2,6-dione] displayed a concentration for half-maximal inhibition (IC50) in assay [1] of 554 nM.

As for `Cc1nc2cccc(NCCCCCCNC34CC5CC(CC(C5)C3)C4)c2c(=O)n1C1CCC(=O)NC1=O` (centres unmarked) [GT-02235, 3-(5-((6-(((3s,5s,7s)-adamantan-1-yl)amino)hexyl)amino)-2-methyl-4-oxoquinazolin-3(4H)-yl)piperidine-2,6-dione], the figures for the IC50 in assay [1] and in assay [2] were 146 nM and 39.5 nM, respectively.

In the case of `Cc1nc2cccc(NCCCCCCCNC34CC5CC(CC(C5)C3)C4)c2c(=O)n1C1CCC(=O)NC1=O` (centres unmarked) [GT-02237, 3-(5-((7-(((1s,3s)-adamantan-1-yl)amino)heptyl)amino)-2-methyl-4-oxoquinazolin-3(4H)-yl)piperidine-2,6-dione], the IC50 was 8.2 nM in assay [1], 3.3 nM in assay [2] and 950 nM in assay [3]. In assay [1], `Cc1nc2cccc(NCCOCCOCCNC34CC5CC(CC(C5)C3)C4)c2c(=O)n1C1CCC(=O)NC1=O` (centres unmarked) [GT-02279, 3-(5-((2-(2-(2-(((1s,3s)-adamantan-1-yl)amino)ethoxy)ethoxy)ethyl)amino)-2-methyl-4-oxoquinazolin-3(4H)-yl)piperidine-2,6-dione] had a half-inhibitory concentration (IC50) of 438 nM. In other words, the sub-micromolar range. `Cc1nc2cccc(NCCCCCNC34CC5CC(CC(C5)C3)C4)c2c(=O)n1C1CCC(=O)NC1=O` (centres unmarked) [GT-02280, 3-(5-((5-(((3s,5s,7s)-adamantan-1-yl)amino)pentyl)amino)-2-methyl-4-oxoquinazolin-3(4H)-yl)piperidine-2,6-dione] registered an IC50 in assay [1] of 409 nM.

In turn, `Cc1nc2cccc(NCCCCCNC(=O)C34CC5CC(CC(C5)C3)C4)c2c(=O)n1C1CCC(=O)NC1=O` (centres unmarked) [GT-02323, (3r,5r,7r)-N-(5-((3-(2,6-dioxopiperidin-3-yl)-2-methyl-4-oxo-3,4-dihydroquinazolin-5-yl)amino)pentyl)adamantane-1-carboxamide] yielded an IC50 in assay [1] of 652 nM. As to `Cc1nc2cccc(NCCCCCNC3C4CC5CC(C4)CC3C5)c2c(=O)n1C1CCC(=O)NC1=O` (centres unmarked) [GT-02393, 3-(5-((5-(((1r,3r,5r,7r)-adamantan-2-yl)amino)pentyl)amino)-2-methyl-4-oxoquinazolin-3(4H)-yl)piperidine-2,6-dione], the IC50 was determined as 458 nM in assay [1] and 420 nM in assay [3]. As to `Cc1nc2cccc(NCCCCCCNC34CC5CC(CC3C5)C4)c2c(=O)n1C1CCC(=O)NC1=O` [GT-02494, 3-(5-((6-(((2R,3as,5S,6as)-hexahydro-2,5-methanopentalen-3a(1H)-yl)amino)hexyl)amino)-2-methyl-4-oxoquinazolin-3(4H)-yl)piperidine-2,6-dione], the IC50 in assay [1] came to 184 nM; in assay [3], 460 nM. On to `Cc1nc2cccc(NCCCCCCCNC34CC5CC(CC3C5)C4)c2c(=O)n1C1CCC(=O)NC1=O` (centres unmarked) [GT-02495, 3-(5-((7-(((3as,6as)-hexahydro-2,5-methanopentalen-3a(1H)-yl)amino)heptyl)amino)-2-methyl-4-oxoquinazolin-3(4H)-yl)piperidine-2,6-dione], for which the concentration for half-maximal inhibition (IC50) in assay [4] stood at 9.8 nM; in assay [1], 21.4 nM; in assay [3], 320 nM. `Cc1nc2cccc(NCCCCCNC34CC5CC(CC3C5)C4)c2c(=O)n1C1CCC(=O)NC1=O` [GT-02496, 3-(5-((5-(((2R,3as,5S,6as)-hexahydro-2,5-methanopentalen-3a(1H)-yl)amino)pentyl)amino)-2-methyl-4-oxoquinazolin-3(4H)-yl)piperidine-2,6-dione]: the IC50 in assay [1] was determined as 474 nM; in assay [3] it was 420 nM. For the molecule `Cc1nc2cccc(NCCCCCCCO)c2c(=O)n1C1CCC(=O)NC1=O` (centres unmarked) [GT-02598, 3-(5-((7-hydroxyheptyl)amino)-2-methyl-4-oxoquinazolin-3(4H)-yl)piperidine-2,6-dione], the half-maximal inhibitory concentration (IC50) in assay [2] came to 17.2 nM; in assay [3], 3660 nM.

In the case of `Cc1nc2cccc(NCCCCCCCN[C@@]34CC5CC(C)(C[C@@](C)(C5)C3)C4)c2c(=O)n1C1CCC(=O)NC1=O` (stereo partly drawn) [GT-02767, 3-(5-((7-(((1SR,3RS,5SR,7r)-3,5-dimethyladamantan-1-yl)amino)heptyl)amino)-2-methyl-4-oxoquinazolin-3(4H)-yl)piperidine-2,6-dione], the IC50 in assay [1] turned out to be 309 nM; in assay [2] it was 69.9 nM; in assay [3], 1050 nM. Turning to `Cc1nc2cccc(NCCCCCCCNC(C)C34CC5CC(CC(C5)C3)C4)c2c(=O)n1C1CCC(=O)NC1=O` (centres unmarked) [GT-02768, 3-(5-((7-((1-((3r,5r,7r)-adamantan-1-yl)ethyl)amino)heptyl)amino)-2-methyl-4-oxoquinazolin-3(4H)-yl)piperidine-2,6-dione], the 50% inhibitory concentration (IC50) stood at 294 nM in assay [1], 98.1 nM in assay [2] and 680 nM in assay [3]. Take `Cc1nc2cccc(NCCCCCCCN3CC4CC4C3)c2c(=O)n1C1CCC(=O)NC1=O` (centres unmarked) [GT-02772, 3-(5-((7-(3-azabicyclo[3.1.0]hexan-3-yl)heptyl)amino)-2-methyl-4-oxoquinazolin-3(4H)-yl)piperidine-2,6-dione]: it took 448 nM to reach half-maximal inhibition in assay [1] (IC50).

On to `Cc1nc2cccc(NCCCCCCCN3CCC4(CC3)CC(F)(F)C4)c2c(=O)n1C1CCC(=O)NC1=O` (centres unmarked) [GT-02773, 3-(5-((7-(2,2-difluoro-7-azaspiro[3.5]nonan-7-yl)heptyl)amino)-2-methyl-4-oxoquinazolin-3(4H)-yl)piperidine-2,6-dione], for which the IC50 stood at 440 nM in assay [1] and 2800 nM in assay [3]. The matching figures for `Cc1nc2cccc(NCCCCCCCNC34CCC(F)(CC3)CC4)c2c(=O)n1C1CCC(=O)NC1=O` (centres unmarked) [GT-02774, 3-(5-((7-((4-fluorobicyclo[2.2.2]octan-1-yl)amino)heptyl)amino)-2-methyl-4-oxoquinazolin-3(4H)-yl)piperidine-2,6-dione]: 102 nM and 2610 nM. For `Cc1nc2cccc(CCCCCCCCNC34CC5CC(CC(C5)C3)C4)c2c(=O)n1C1CCC(=O)NC1=O` (centres unmarked) [GT-02797, 3-(5-(8-(((1s,3s)-adamantan-1-yl)amino)octyl)-2-methyl-4-oxoquinazolin-3(4H)-yl)piperidine-2,6-dione], in that order: 312 nM and 180 nM. As for `Cc1nc2cccc(SCCN3CCN(c4ccc(C#N)cc4F)CC3)c2c(=O)n1C1CCC(=O)NC1=O` (centres unmarked) [GT-03314, 4-(4-(2-((3-(2,6-dioxopiperidin-3-yl)-2-methyl-4-oxo-3,4-dihydroquinazolin-5-yl)thio)ethyl)piperazin-1-yl)-3-fluorobenzonitrile], the 50% inhibitory concentration (IC50) in assay [5] turned out to be 709 nM. Regarding `Cc1cc2cccc(NCCN3CCN(C(c4ccc(F)cc4)c4ccc(F)cc4)CC3)c2c(=O)n1C1CCC(=O)NC1=O` (centres unmarked) [GT-03388, 3-(8-((2-(4-(bis(4-fluorophenyl)methyl)piperazin-1-yl)ethyl)amino)-3-methyl-1-oxoisoquinolin-2(1H)-yl)piperidine-2,6-dione], in assay [4], the 50% inhibitory concentration (IC50) was 352 nM. That is a sub-micromolar value.

A word on the IC50: it is the concentration at which inhibition is half-maximal. Read a high IC50 as weaker potency in that assay.
